Each structure is given as a SMILES string.

In experiment [1] the test system is non-resistant type of E. coli. As to the kind of experiment: Mass spectrometric (MALDI) protein profile after incubation with antibiotic in liquid nutrient medium, non-resistant strain. The experiment is classed as cell-based, Escherichia coli. The following applies: ampicillin in a liquid nutrient medium allowed to act for two hours, FIG. 2 top. As to the method: (§1) The non-resistant type of E. coli (top) has been destroyed; all protein signals of the mass spectra from FIG. 1 have disappeared.
(§2) The illustrative method starts in step 300 and comprises the following steps: • (a) In step 302, a quantity of microbes under investigation is added to a nutrient medium which also contains a quantity of the antibiotic, • (b) Next, in step 304, the microbes are incubated at a predetermined temperature for a predetermined length of time, preferably not longer than a few hours, • (c) In step 306, the microbes are then removed from the nutrient medium by a suitable means, such as centrifuging, • (d) The microbes are then applied, in step 308, together with a matrix solution to a mass spectrometric sample support and the matrix solution is dried on the sample support to form a sample, • (e) In step 310, a mass spectrum of this sample is acquired, and • (f) Then, in step 312, the acquired mass spectrum is compared with reference mass spectra of these microbes. The process then finishes in step 314.
Infectious microbes are incubated for about two hours at temperatures of between 35° C. and 40° C. in the presence of the antibiotics. This temperature is the optimum one for most infectious microbes because they are generally adapted to a life in mammals. […]

The subject of experiment [2] is E. coli with a resistance to ampicillin due to a plasmid pUC19. Briefly: Mass spectrometric (MALDI) protein profile after incubation with antibiotic in liquid nutrient medium, resistant strain. The experiment is classed as cell-based, Escherichia coli. Particulars: ampicillin in a liquid nutrient medium allowed to act for two hours, FIG. 2 bottom. As to the method: The mass spectra contain predominantly protein signals of the same mass, with the usual lack of reproducibility of the intensities. They are identified as being identical by suitable computer programs.
as §1, §2
Infectious microbes are incubated for about two hours at temperatures of between 35° C. and 40° C. in the presence of the antibiotics. […]

With `CC1(C)S[C@@H]2[C@H](NC(=O)[C@H](N)c3ccccc3)C(=O)N2[C@H]1C(=O)O` [ampicillin], in experiment [1], the “effect on microbes / protein signals of the mass spectrum” value is given as “destroyed”. For the same compound, in experiment [2], the “effect on microbes / protein profile of the mass spectrum” value is listed as “protein profile which is sufficiently similar to the two mass spectra in FIG. 1”.
